Assays:
[1] = molecular target: T1, norepinephrine uptake by rat hypothalamus synaptosomes (Rattus norvegicus, UniProt Q63380); test: Norepinephrine uptake functional assay; assay type: biochemical; details: [3H]-norepinephrine, read-out: Monoamine Neuronal Transport NE uptake (IC50)
T1 construct: tissue Cerep; host or cells: male Wistar rat hypothalamus synaptosomes
Method: Norepinephrine uptake functional assay
Characterization of norepinephrine uptake is performed using synaptosomes isolated at Cerep in a 0.32 M sucrose buffer from a male Wistar rat hypothalamus. The uptake of radiolabeled norepinephrine by synaptosomes (100 μg of proteins/point) is allowed by incubating them for 20 minutes at 37° C. in presence of test compounds and [3H]-norepinephrine (0.1 μCi/point). The experiment is performed in a deep well.
Synaptosomes and [3H]-norepinephrine are prepared in a Krebs buffer pH 7.4 containing 25 mM NaHCO3, 11 mM glucose and 50 μM ascorbic acid. This incubation buffer is oxygenated during 5 minutes before incubation. Basal control is incubated for 20 minutes at 4° C. in order to avoid any uptake. Following this incubation the uptake is stopped by filtration through an “unifilter 96-wells GFB” Packard plate washed with Krebs buffer containing 25 mM NaHCO3 in order to eliminate the free [3H]-norepinephrine. The radioactivity associated to the synaptosomes retained onto the unifilter corresponding to the uptake is then measured with a microplate scintillation counter Topcount, Packard using a scintillation liquid microscint 0, Packard.
[See Perovics and Müiller, op.cit. (1995).]

Human 5-HT2A receptor = molecular target: T2, Human 5-HT2A receptor (Homo sapiens, UniProt P28223); test: 5-HT2A receptor binding; details: [3H]ketanserin, transfected CHO cell membranes; read-out: Serotonin Receptor Binding 5-HT2A (IC50)
T2 construct: expressed in transfected cells; host or cells: CHO cells
Method: (§1) Dopamine and serotonin receptor binding assays were performed in a standard manner with the incubation of membrane preparations in an assay buffer in the presence of a known radioactively labeled specific ligand for the receptor subtypes. Nonspecific binding was determined by assessing binding in the presence of excess ligand. Specific binding was measured as the total labeled ligand bound after the nonspecific binding was subtracted. The effect of the tested agents was measured by determining the competition for the receptor binding across a concentration range. Subsequently, an IC50 was determined for the agents tested. More specific details are provided below for several of the assays performed.
Aliquots of transfected CHO cell membrane preparations corresponding to 20-50 μg protein are incubated for 15 min at 37° C. in 250 μl of 50 mM Tris-HCl buffer (pH 7.4) containing 2 nM [^3H]ketanserin and increasing concentrations of the competing drugs. Nonspecific binding is determined in the presence of 1 μM ketanserin. After incubation, the samples are filtered rapidly under vacuum through glass fiber filters (GF/B, Packard) and rinsed several times with ice-cold 50 mM Tris-HCl using a cell harvester (Packard). Bound radioactivity is measured with a scintillation counter (Topcount, Packard) using a liquid scintillation cocktail (Microscint 0, Packard).
The reference compound for this assay is ketanserin.

α1 Receptor = test: α1 receptor binding; details: read-out: α1 Receptor Binding Alpha1 (IC50)
Human 5-HT2C receptor = molecular target: T3, Human 5-HT2C receptor (Homo sapiens, UniProt P28335); test: 5-HT2C receptor binding; details: [3H]mesulergine, transfected CHO cell membranes; read-out: Serotonin Receptor Binding 5HT2C (IC50)
T3 construct: expressed in transfected cells; host or cells: CHO cells
T3 sequence (P28335 33-458): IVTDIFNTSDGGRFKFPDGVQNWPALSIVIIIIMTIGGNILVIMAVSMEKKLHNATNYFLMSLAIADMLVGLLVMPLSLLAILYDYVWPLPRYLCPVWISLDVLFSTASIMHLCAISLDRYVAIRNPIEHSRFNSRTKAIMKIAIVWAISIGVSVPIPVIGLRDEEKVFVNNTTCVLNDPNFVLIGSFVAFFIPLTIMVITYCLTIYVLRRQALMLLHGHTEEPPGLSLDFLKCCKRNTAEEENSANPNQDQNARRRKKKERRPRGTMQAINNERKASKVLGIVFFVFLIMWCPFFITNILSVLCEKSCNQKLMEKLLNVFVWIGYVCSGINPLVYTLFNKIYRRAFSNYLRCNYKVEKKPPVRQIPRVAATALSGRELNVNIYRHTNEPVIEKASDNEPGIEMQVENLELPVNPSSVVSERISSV
Method: as §1
Aliquots of transfected CHO cell membrane preparations corresponding to 5-10 μg protein are incubated for 30 min at 37° C. in 250 μl of 50 mM Tris-HCl buffer (pH 7.7) containing 10 μM pargyline, 0.7 nM [^3H]mesulergine and increasing concentrations of the competing drugs. Nonspecific binding is determined in the presence of 1 μM mesulergine. After incubation, the samples are filtered rapidly under vacuum through glass fiber filters (GF/B, Packard) and rinsed several times with ice-cold 50 mM Tris-HCl using a cell harvester (Packard). Bound radioactivity is measured with a scintillation counter (Topcount, Packard) using a liquid scintillation cocktail (Microscint 0, Packard). The reference compound for this assay is mesulergine.

5-HT1A receptors = molecular target: T4, 5-HT1A receptors (Homo sapiens, UniProt P08908); test: 5-HT1A receptor binding; parameters: expressed in transfected cells; host or cells: CHO cells; details: [3H]8-OH-DPAT, transfected CHO cell membranes; read-out: Serotonin Receptor Binding 5-HT1A (IC50)
T4 sequence (P08908 1-422): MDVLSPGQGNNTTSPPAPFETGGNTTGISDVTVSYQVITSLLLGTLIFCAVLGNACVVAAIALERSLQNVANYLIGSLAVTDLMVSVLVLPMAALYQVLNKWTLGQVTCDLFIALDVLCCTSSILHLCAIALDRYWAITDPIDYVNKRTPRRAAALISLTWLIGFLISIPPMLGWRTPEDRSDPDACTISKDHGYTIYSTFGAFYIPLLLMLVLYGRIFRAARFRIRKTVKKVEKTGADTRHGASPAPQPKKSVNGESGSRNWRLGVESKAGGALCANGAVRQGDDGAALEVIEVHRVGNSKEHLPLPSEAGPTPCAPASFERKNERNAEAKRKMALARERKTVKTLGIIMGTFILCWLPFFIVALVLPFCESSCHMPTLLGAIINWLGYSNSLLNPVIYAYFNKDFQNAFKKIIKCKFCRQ
Method: as §1
Aliquots of transfected CHO cell membrane preparations corresponding to 7-15 μg protein are incubated for 60 min at 22° C. in 250 μl of 50 mM Tris-HCl buffer (pH 7.4) containing 10 mM MgSO4, 0.5 mM EDTA, 0.3 nM [^3H]8-OH-DPAT and increasing concentrations of the competing drugs. Nonspecific binding is determined in the presence of 10 μM 8-OH-DPAT. After incubation, the samples are filtered rapidly under vacuum through glass fiber filters (GF/B, Packard) and rinsed several times with ice-cold 50 mM Tris-HCl using a cell harvester (Packard). Bound radioactivity is measured with a scintillation counter (Topcount, Packard) using a liquid scintillation cocktail (Microscint 0, Packard). The reference compound for this assay is 8-OH-DPAT.

[2] = AUC and Cmax increasing more than proportionally with dose and upon multiple dosing; cited from earlier work
[3] = tested on: 5-HT2 receptors versus dopamine receptors; test: Selectivity from dopamine and serotonin receptor binding data; details: compared with nefazodone or S-hydroxynefazodone
Method: as §1

T1 sequence (Q63380 1-617): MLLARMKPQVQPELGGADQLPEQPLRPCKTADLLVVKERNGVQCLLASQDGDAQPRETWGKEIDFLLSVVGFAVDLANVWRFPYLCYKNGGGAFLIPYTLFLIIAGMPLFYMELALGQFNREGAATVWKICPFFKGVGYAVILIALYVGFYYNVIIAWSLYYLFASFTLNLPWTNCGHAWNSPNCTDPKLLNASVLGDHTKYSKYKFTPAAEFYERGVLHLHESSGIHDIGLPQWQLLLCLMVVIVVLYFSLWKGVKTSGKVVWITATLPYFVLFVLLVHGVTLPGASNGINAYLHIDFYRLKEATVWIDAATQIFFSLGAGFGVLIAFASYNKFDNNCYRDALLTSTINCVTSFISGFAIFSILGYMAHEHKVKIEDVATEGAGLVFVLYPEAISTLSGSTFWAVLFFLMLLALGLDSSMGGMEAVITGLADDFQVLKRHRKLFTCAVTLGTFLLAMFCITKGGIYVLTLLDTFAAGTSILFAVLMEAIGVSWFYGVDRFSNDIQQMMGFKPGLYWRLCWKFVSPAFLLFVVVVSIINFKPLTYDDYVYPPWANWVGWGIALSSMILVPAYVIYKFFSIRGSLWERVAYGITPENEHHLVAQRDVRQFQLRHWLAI
T2 sequence (P28223 whole entry): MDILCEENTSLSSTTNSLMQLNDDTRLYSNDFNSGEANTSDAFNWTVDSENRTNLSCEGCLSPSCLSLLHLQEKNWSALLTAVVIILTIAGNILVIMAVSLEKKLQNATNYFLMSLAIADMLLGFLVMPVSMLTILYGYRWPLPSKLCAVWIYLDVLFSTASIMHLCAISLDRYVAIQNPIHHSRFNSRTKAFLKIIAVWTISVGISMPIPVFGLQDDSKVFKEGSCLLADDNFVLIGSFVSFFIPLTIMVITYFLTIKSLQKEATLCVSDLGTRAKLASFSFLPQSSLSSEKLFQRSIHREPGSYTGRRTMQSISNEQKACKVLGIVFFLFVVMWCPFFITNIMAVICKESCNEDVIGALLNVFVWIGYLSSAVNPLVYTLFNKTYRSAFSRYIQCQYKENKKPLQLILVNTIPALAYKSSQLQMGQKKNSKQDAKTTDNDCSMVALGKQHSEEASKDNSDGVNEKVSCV

Row | SMILES | IC50 [1] [nM] | IC50 (Human 5-HT2A receptor) [nM] | IC50 (α1 Receptor) [nM] | IC50 (Human 5-HT2C receptor) [nM] | IC50 (5-HT1A receptors) [nM] | kinetics for dose and time (AUC and Cmax) [2] | selectivity for 5-HT family of receptors, in particular 5-HT2, versus dopamine receptors (D2 and D4) [3]
1 | C[C@H](O)c1nn(CCCN2CCN(c3cccc(Cl)c3)CC2)c(=O)n1CCOc1ccccc1 [(S)-OH, (S)-2-{3-[4-(3-Chlorophenyl)-1-piperazinyl]propyl}-4-(2-phenoxyethyl)-5-[1-(hydroxy)-ethyl]-2,4-dihydro-[1,2,4]triazol-3-one] | 1500 | 18 | 419 | 34 | 249 |  | 
2 | CC(O)c1nn(CCCN2CCN(c3cccc(Cl)c3)CC2)c(=O)n1CCOc1ccccc1 (racemic) [(RS)-OH, 2-[3-[4-(3-chlorophenyl)1-piperazinyl]propyl]-5-(1-hydroxyethyl)-2,4-dihydro-4-(phenoxyethyl)-3H-1,2,4-triazol-3-one, reference compound] | 1000 | 20 | 381 | 46 | 409 | nonlinear kinetics | 
3 | C[C@@H](O)c1nn(CCCN2CCN(c3cccc(Cl)c3)CC2)c(=O)n1CCOc1ccccc1 [(R)-OH, (R)-hydroxynefazodone] | 1200 | 22 | 367 | 33 | 496 |  | interacts more selectively
